Results published in the supplement of paper PMC10307832.

Legend:
Assay in all cases: relative viability (nuclei count vs DMSO), 5 days (fraction); higher = more cells survive
[1] = compound: Cc1ccc(-n2nc(C(C)(C)C)cc2NC(=O)Nc2ccc(OCCN3CCOCC3)c3ccccc23)cc1 [Doramapimod] + CC(C)C[C@H](NC(=O)[C@H](Cc1ccccc1)NC(=O)c1cnccn1)B(O)O [Bortezomib] (partner 0.002 µM)
Outline: (§1)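 Relative viability divides the nuclei count in treated wells by that in vehicle wells. Lung cancer cell lines were seeded in 1536-well plates, dosed by pin tool the next day, and fixed and stained after 5 days in one step with final 0.05% Triton X-100, 1% formaldehyde and 1 ug/ml Hoechst. Dosing was a single drug or a fixed anchor-drug dose plus five library-drug doses (not always all listed) in √10 steps, and values are medians of duplicate plates imaged at 4×.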

[2] = compound: Cn1c(Nc2ccc(C(F)(F)F)cc2)nc2cc(Oc3ccnc(-c4ncc(C(F)(F)F)[nH]4)c3)ccc21 [RAF265] + COc1cc2c(Oc3ccc(NC(=O)C4(C(=O)Nc5ccc(F)cc5)CC4)cc3F)ccnc2cc1OCCCN1CCOCC1 [Foretinib] (partner 0.25 µM)
Outline: as §1

[3] = compound: Cn1c(Nc2ccc(C(F)(F)F)cc2)nc2cc(Oc3ccnc(-c4ncc(C(F)(F)F)[nH]4)c3)ccc21 [RAF265] + CS(=O)(=O)CCNCc1ccc(-c2ccc3ncnc(Nc4ccc(OCc5cccc(F)c5)c(Cl)c4)c3c2)o1 [Lapatinib] (partner 2 µM)
Outline: as §1

[4] = compound: Cn1c(Nc2ccc(C(F)(F)F)cc2)nc2cc(Oc3ccnc(-c4ncc(C(F)(F)F)[nH]4)c3)ccc21 [RAF265] + C[C@@H](Oc1cc(-c2cnn(C3CCNCC3)c2)cnc1N)c1c(Cl)ccc(F)c1Cl [Crizotinib] (partner 1 µM)
Outline: as §1

NCI-H1734
relative viability ([1]; first compound 0.02 µM): 0.845 | relative viability ([1]; first compound 0.06325 µM): 0.859 | relative viability ([1]; first compound 0.2 µM): 0.766 | relative viability ([1]; first compound 0.6325 µM): 0.966 | relative viability ([1]; first compound 2 µM): 0.724 | relative viability ([2]; first compound 0.01 µM): 0.858 | relative viability ([2]; first compound 0.03162 µM): 0.701 | relative viability ([2]; first compound 0.1 µM): 0.627 | relative viability ([2]; first compound 0.3162 µM): 0.647 | relative viability ([2]; first compound 1 µM): 0.454 | relative viability ([3]; first compound 0.01 µM): 1.08 | relative viability ([3]; first compound 0.03162 µM): 0.854 | relative viability ([3]; first compound 0.1 µM): 0.866 | relative viability ([3]; first compound 0.3162 µM): 0.806 | relative viability ([3]; first compound 1 µM): 0.485 | relative viability ([4]; first compound 0.01 µM): 0.662 | relative viability ([4]; first compound 0.03162 µM): 0.47 | relative viability ([4]; first compound 0.1 µM): 0.751 | relative viability ([4]; first compound 0.3162 µM): 0.492 | relative viability ([4]; first compound 1 µM): 0.319

A-427
relative viability ([1]; first compound 0.02 µM): 0.907 | relative viability ([1]; first compound 0.06325 µM): 1.05 | relative viability ([1]; first compound 0.2 µM): 1 | relative viability ([1]; first compound 2 µM): 1.12 | relative viability ([2]; first compound 0.01 µM): 1.12 | relative viability ([2]; first compound 0.03162 µM): 0.962 | relative viability ([2]; first compound 0.1 µM): 0.846 | relative viability ([2]; first compound 0.3162 µM): 0.26 | relative viability ([2]; first compound 1 µM): 0.204 | relative viability ([3]; first compound 0.01 µM): 1.06 | relative viability ([3]; first compound 0.03162 µM): 0.949 | relative viability ([3]; first compound 0.1 µM): 1.06 | relative viability ([3]; first compound 0.3162 µM): 1.11 | relative viability ([3]; first compound 1 µM): 0.713 | relative viability ([4]; first compound 0.01 µM): 0.882 | relative viability ([4]; first compound 0.03162 µM): 0.639 | relative viability ([4]; first compound 0.1 µM): 0.927 | relative viability ([4]; first compound 0.3162 µM): 0.644 | relative viability ([4]; first compound 1 µM): 0.159

RERF-LC-KJ
relative viability ([1]; first compound 0.02 µM): 1.19 | relative viability ([1]; first compound 0.06325 µM): 1.05 | relative viability ([1]; first compound 0.2 µM): 1.29 | relative viability ([1]; first compound 0.6325 µM): 1.07 | relative viability ([1]; first compound 2 µM): 1.04 | relative viability ([2]; first compound 0.01 µM): 0.867 | relative viability ([2]; first compound 0.03162 µM): 0.85 | relative viability ([2]; first compound 0.1 µM): 0.891 | relative viability ([2]; first compound 0.3162 µM): 0.759 | relative viability ([2]; first compound 1 µM): 0.774 | relative viability ([3]; first compound 0.01 µM): 0.837 | relative viability ([3]; first compound 0.03162 µM): 0.776 | relative viability ([3]; first compound 0.1 µM): 0.827 | relative viability ([3]; first compound 0.3162 µM): 0.784 | relative viability ([3]; first compound 1 µM): 0.679 | relative viability ([4]; first compound 0.01 µM): 0.867 | relative viability ([4]; first compound 0.03162 µM): 0.818 | relative viability ([4]; first compound 0.1 µM): 0.93 | relative viability ([4]; first compound 0.3162 µM): 0.852 | relative viability ([4]; first compound 1 µM): 0.632

NCI-H727
relative viability ([1]; first compound 0.02 µM): 0.853 | relative viability ([1]; first compound 0.06325 µM): 0.818 | relative viability ([1]; first compound 0.2 µM): 0.775 | relative viability ([1]; first compound 0.6325 µM): 0.705 | relative viability ([1]; first compound 2 µM): 0.87 | relative viability ([2]; first compound 0.01 µM): 0.879 | relative viability ([2]; first compound 0.03162 µM): 0.895 | relative viability ([2]; first compound 0.1 µM): 0.98 | relative viability ([2]; first compound 0.3162 µM): 0.744 | relative viability ([2]; first compound 1 µM): 0.454 | relative viability ([3]; first compound 0.01 µM): 0.915 | relative viability ([3]; first compound 0.03162 µM): 0.736 | relative viability ([3]; first compound 0.1 µM): 0.963 | relative viability ([3]; first compound 0.3162 µM): 1.1 | relative viability ([3]; first compound 1 µM): 0.371 | relative viability ([4]; first compound 0.01 µM): 0.8 | relative viability ([4]; first compound 0.03162 µM): 0.727 | relative viability ([4]; first compound 0.1 µM): 0.967 | relative viability ([4]; first compound 0.3162 µM): 0.598 | relative viability ([4]; first compound 1 µM): 0.283

LCLC-97TM1
relative viability ([1]; first compound 0.02 µM): 0.587 | relative viability ([1]; first compound 0.06325 µM): 1.27 | relative viability ([1]; first compound 0.2 µM): 0.905 | relative viability ([1]; first compound 0.6325 µM): 0.378 | relative viability ([1]; first compound 2 µM): 0.521 | relative viability ([2]; first compound 0.01 µM): 0.993 | relative viability ([2]; first compound 0.03162 µM): 0.811 | relative viability ([2]; first compound 0.1 µM): 0.967 | relative viability ([2]; first compound 0.3162 µM): 0.811 | relative viability ([2]; first compound 1 µM): 0.448 | relative viability ([3]; first compound 0.01 µM): 1.12 | relative viability ([3]; first compound 0.03162 µM): 1.05 | relative viability ([3]; first compound 0.1 µM): 0.443 | relative viability ([3]; first compound 0.3162 µM): 0.856 | relative viability ([3]; first compound 1 µM): 0.219 | relative viability ([4]; first compound 0.01 µM): 0.355 | relative viability ([4]; first compound 0.03162 µM): 0.274 | relative viability ([4]; first compound 0.1 µM): 0.293 | relative viability ([4]; first compound 0.3162 µM): 0.181 | relative viability ([4]; first compound 1 µM): 0.121

BEN
relative viability ([1]; first compound 0.02 µM): 0.69 | relative viability ([1]; first compound 0.06325 µM): 0.785 | relative viability ([1]; first compound 0.2 µM): 0.896 | relative viability ([1]; first compound 0.6325 µM): 0.52 | relative viability ([1]; first compound 2 µM): 0.684 | relative viability ([2]; first compound 0.01 µM): 0.665 | relative viability ([2]; first compound 0.03162 µM): 0.776 | relative viability ([2]; first compound 0.1 µM): 0.701 | relative viability ([2]; first compound 0.3162 µM): 0.664 | relative viability ([2]; first compound 1 µM): 0.568 | relative viability ([3]; first compound 0.01 µM): 0.726 | relative viability ([3]; first compound 0.03162 µM): 0.76 | relative viability ([3]; first compound 0.1 µM): 0.945 | relative viability ([3]; first compound 0.3162 µM): 0.831 | relative viability ([3]; first compound 1 µM): 0.557 | relative viability ([4]; first compound 0.01 µM): 0.955 | relative viability ([4]; first compound 0.03162 µM): 0.911 | relative viability ([4]; first compound 0.1 µM): 0.961 | relative viability ([4]; first compound 0.3162 µM): 1.07 | relative viability ([4]; first compound 1 µM): 0.821

NCI-H2023
relative viability ([1]; first compound 0.02 µM): 1 | relative viability ([1]; first compound 0.06325 µM): 0.945 | relative viability ([1]; first compound 0.2 µM): 0.978 | relative viability ([1]; first compound 0.6325 µM): 0.44 | relative viability ([1]; first compound 2 µM): 0.97 | relative viability ([2]; first compound 0.01 µM): 0.86 | relative viability ([2]; first compound 0.03162 µM): 0.875 | relative viability ([2]; first compound 0.1 µM): 0.893 | relative viability ([2]; first compound 1 µM): 0.553 | relative viability ([3]; first compound 0.01 µM): 0.905 | relative viability ([3]; first compound 0.03162 µM): 0.77 | relative viability ([3]; first compound 0.1 µM): 1.13 | relative viability ([3]; first compound 0.3162 µM): 0.579 | relative viability ([3]; first compound 1 µM): 0.727 | relative viability ([4]; first compound 0.01 µM): 0.624 | relative viability ([4]; first compound 0.03162 µM): 0.58 | relative viability ([4]; first compound 0.1 µM): 0.88 | relative viability ([4]; first compound 0.3162 µM): 0.668 | relative viability ([4]; first compound 1 µM): 0.478

LC-2-ad
relative viability ([1]; first compound 0.02 µM): 0.985 | relative viability ([1]; first compound 0.06325 µM): 1.12 | relative viability ([1]; first compound 0.2 µM): 1.06 | relative viability ([1]; first compound 0.6325 µM): 1.14 | relative viability ([1]; first compound 2 µM): 0.94 | relative viability ([2]; first compound 0.01 µM): 1.22 | relative viability ([2]; first compound 0.03162 µM): 0.921 | relative viability ([2]; first compound 0.1 µM): 0.94 | relative viability ([2]; first compound 0.3162 µM): 0.863 | relative viability ([2]; first compound 1 µM): 0.645 | relative viability ([3]; first compound 0.01 µM): 0.906 | relative viability ([3]; first compound 0.03162 µM): 1.03 | relative viability ([3]; first compound 0.1 µM): 0.813 | relative viability ([3]; first compound 0.3162 µM): 0.654 | relative viability ([3]; first compound 1 µM): 0.208 | relative viability ([4]; first compound 0.01 µM): 0.451 | relative viability ([4]; first compound 0.03162 µM): 0.442 | relative viability ([4]; first compound 0.1 µM): 0.492 | relative viability ([4]; first compound 0.3162 µM): 0.474 | relative viability ([4]; first compound 1 µM): 0.305
